# Laboratory results as given in patent publication US4107424A, “1-N-[(S)-α-hydroxy-ω-aminoacyl] derivatives of 3',4'-dideoxykanamycin B and 3'-deoxykanamycin B antibiotics” (Zaidan Hojin Biseibutsu Kagaku Kenkyu Kai, priority 1972, dated 1978).
# Key:
# [1] = system: Bacillus subtilis NRRL B-558; experiment: Minimal inhibitory concentration, agar dilution streak method; assay type: cell-based; conditions: NRRLB558, nutrient agar, 37° C, 18 hours
# Procedure: (§1) [α]D^22 + 38°, (c 0.85, water).
# (§2) *Agar Agar dilution streak method (nutrient agar, 37° C, 18 hours)
# (§3) *Agar dilution streak method (nutrient agar, 37° C, 18 hours).
# [2] = system: Escherichia coli J 5 R 11-2; experiment: as above; assay type: cell-based; conditions: J5R112, 18 h, read-out: Minimal inhibitory concentration
# Procedure: as §1, §2, §3
# [3] = system: Escherichia coli K-12 C 600 R 135; experiment: as above; assay type: cell-based; conditions: 18 h, read-out: Minimal inhibitory concentration
# Procedure: as §1, §2, §3
# [4] = system: Escherichia coli K-12 R-5; experiment: as above; assay type: cell-based; conditions: K12R5, nutrient agar, 37° C, 18 hours
# Procedure: as §1, §2, §3
# Escherichia coli NIHJ = experiment: as above; assay type: cell-based; conditions: nutrient agar, 37° C, 18 hours
# Procedure: as §1, §2, §3
# [5] = system: Klebsiella pneumoniae PCI 602; experiment: as above; assay type: cell-based; conditions: PCI602, nutrient agar, 37° C, 18 hours
# Procedure: as §1, §2, §3
# Proteus rettgeri GN 311 = experiment: as above; assay type: cell-based; conditions: Providencia rettgeri, GN311; nutrient agar, 37° C, 18 hours
# Procedure: as §1, §2, §3
# Proteus rettgeri GN 466 = experiment: as above; assay type: cell-based; conditions: Providencia rettgeri, GN466; nutrient agar, 37° C, 18 hours
# Procedure: as §1, §2, §3
# [6] = system: Pseudomonas aeruginosa 99; experiment: as above; assay type: cell-based; conditions: nutrient agar, 37° C, 18 hours, read-out: Minimal inhibitory concentration
# Procedure: as §1, §2, §3
# Salmonella typhosa T-63 = experiment: as above; assay type: cell-based; conditions: Salmonella enterica, nutrient agar, 37° C, 18 hours
# Procedure: as §1, §2, §3
# Sarcina lutea PCI 1001 = experiment: as above; assay type: cell-based; conditions: Micrococcus luteus, PCI1001; nutrient agar, 37° C, 18 hours; read-out: Minimal inhibitory concentration
# Procedure: as §1, §2, §3
# [7] = system: Escherichia coli K-12 JR 66/W 677; experiment: as above; assay type: cell-based; conditions: Escherichia coli, 18 h, read-out: Minimal inhibitory concentration
# Procedure: as §2, §3
# [8] = system: Escherichia coli K-12 LA 290 R 55; experiment: as above; assay type: cell-based; conditions: 18 h, read-out: Minimal inhibitory concentration
# Procedure: as §2, §3
# [9] = system: Escherichia coli K-12 LA 290 R 56; experiment: as above; assay type: cell-based; conditions: 18 h, read-out: Minimal inhibitory concentration
# Procedure: as §2, §3
# [10] = system: Escherichia coli K-12 LA 290 R 64; experiment: as above; assay type: cell-based; conditions: nutrient agar, 37° C, 18 hours, read-out: Minimal inhibitory concentration
# Procedure: as §2, §3
# [11] = system: Escherichia coli K-12 ML 1410 R 81; experiment: as above; assay type: cell-based; conditions: 18 h, read-out: Minimal inhibitory concentration
# Procedure: as §2, §3
# [12] = system: Escherichia coli K-12 ML 1410; experiment: as above; assay type: cell-based; conditions: K12ML1410, nutrient agar, 37° C, 18 hours, read-out: Minimal inhibitory concentration
# Procedure: as §2, §3
# [13] = system: Escherichia coli K-12 ML 1629; experiment: as above; assay type: cell-based; conditions: K12ML1629, nutrient agar, 37° C, 18 hours, read-out: Minimal inhibitory concentration
# Procedure: as §2, §3
# [14] = system: Escherichia coli K-12 ML 1630; experiment: as above; assay type: cell-based; conditions: K12ML1630, nutrient agar, 37° C, 18 hours, read-out: Minimal inhibitory concentration
# Procedure: as §2, §3
# [15] = system: Escherichia coli K-12 W 677; experiment: as above; assay type: cell-based; conditions: K12W677, nutrient agar, 37° C, 18 hours, read-out: Minimal inhibitory concentration
# Procedure: as §2, §3
# Escherichia coli K-12 = experiment: as above; assay type: cell-based; conditions: K12, nutrient agar, 37° C, 18 hours, read-out: Minimal inhibitory concentration
# Procedure: as §2, §3
# [16] = system: Klebsiella pneumoniae type 22 #3038; experiment: as above; assay type: cell-based; conditions: Klebsiella pneumoniae; nutrient agar, 37° C, 18 hours
# Procedure: as §2, §3
# [17] = system: Pseudomonas aeruginosa A 3; experiment: as above; assay type: cell-based; conditions: A3, nutrient agar, 37° C, 18 hours, read-out: Minimal inhibitory concentration
# Procedure: as §2, §3
# [18] = system: Pseudomonas aeruginosa GN 315; experiment: as above; assay type: cell-based; conditions: GN315, nutrient agar, 37° C, 18 hours, read-out: Minimal inhibitory concentration
# Procedure: as §2, §3
# [19] = system: Pseudomonas aeruginosa No.12; experiment: as above; assay type: cell-based; conditions: nutrient agar, 37° C, 18 hours, read-out: Minimal inhibitory concentration
# Procedure: as §2, §3
# [20] = system: Pseudomonas aeruginosa TI-13; experiment: as above; assay type: cell-based; conditions: TI13, nutrient agar, 37° C, 18 hours, read-out: Minimal inhibitory concentration
# Procedure: as §2, §3
# [21] = system: Staphylococcus aureus FDA 209P; experiment: as above; assay type: cell-based; conditions: FDA209P, nutrient agar, 37° C, 18 hours, read-out: Minimal inhibitory concentration
# Procedure: as §2, §3
# [22] = system: Mycobacterium smegmatis ATCC 607; experiment: as above; assay type: cell-based; conditions: Mycolicibacterium smegmatis, ATCC607; nutrient agar, 37° C, 48 hours; read-out: Minimal inhibitory concentration
# phosphotransferase = conditions: phosphorylation of hydroxyl group; cited from earlier work
smiles,measurement,setting,value
"NC[C@@H]1CC[C@@H](N)[C@@H](O[C@H]2[C@H](O[C@@H]3O[C@H](CO)[C@@H](O)[C@H]3O)[C@@H](O)[C@H](N)C[C@@H]2N)O1 [3',4'-dideoxyribostamycin]",MIC,[1],1.56 µg/mL
same,MIC,[2],100 µg/mL
same,MIC,[3],3.12 µg/mL
same,MIC,[4],100 µg/mL
same,MIC,Escherichia coli NIHJ,6.25 µg/mL
same,MIC,[5],3.12 µg/mL
same,MIC,Proteus rettgeri GN 311,6.25 µg/mL
same,MIC,Proteus rettgeri GN 466,6.25 µg/mL
same,MIC,[6],50 µg/mL
same,MIC,Salmonella typhosa T-63,1.56 µg/mL
same,MIC,Sarcina lutea PCI 1001,> 100 µg/mL
same,MIC,[7],6.25 µg/mL
same,MIC,[8],3.12 µg/mL
same,MIC,[9],1.56 µg/mL
same,MIC,[10],3.12 µg/mL
same,MIC,[11],> 100 µg/mL
same,MIC,[12],6.25 µg/mL
same,MIC,[13],> 100 µg/mL
same,MIC,[14],> 100 µg/mL
same,MIC,[15],3.12 µg/mL
same,MIC,Escherichia coli K-12,3.12 µg/mL
same,MIC,[16],6.25 µg/mL
same,MIC,[17],6.25 µg/mL
same,MIC,[18],> 100 µg/mL
same,MIC,[19],12.5 µg/mL
same,MIC,[20],25 µg/mL
same,MIC,[21],3.12 µg/mL
same,MIC,[22],3.12 µg/mL
same,inactivation by phosphotransferase,phosphotransferase,"inactivated by phosphorylating 5""-hydroxyl group"
